One data set deals with male Wistar rats. Nature of the data set: Oral administration of Compound-5 to rats: toxicity and Compound-1 in the blood. The following applies: rat, in vivo. How it is done:
Male Wistar rats (n=4) weighing about 200 g were employed and the concentration of Compound-1 contained in the serum was expressed in mean±SE (FIG. 9).
In FIG. 9, open circles show a case wherein Compound-5 was solubilized with HCO-60 and orally administered in a dose of 2 mg/kg.
Solid circles show a case wherein Compound-5 was suspended in an acacia solution and orally administered in a dose of 20 mg/kg. Per part of the serum collected with the passage of time, ethanol containing 1% of acetic acid was added and the mixture was allowed to stand in the dark at room temperature for 7 days. Then Compound-1 was determined by high performance liquid chromatography.
Open squares show a case wherein Compound-5 was suspended in an acacia solution and orally administered. Then the blood was collected at definite points and Compound-1 was determined by high performance liquid chromatography immediately thereafter. […] Separately, Compound-5 suspended in an acacia solution was orally administered to rats having been cannulated into the portal vein. Then the portal blood was collected with the passage of time and Compound-1 was determined.

The next data set addresses T1, human RXRα (Homo sapiens, UniProt P19793).
T1 construct: expressed in transfected cells; host or cells: COS-1 cells
T1 sequence (P19793 1-462): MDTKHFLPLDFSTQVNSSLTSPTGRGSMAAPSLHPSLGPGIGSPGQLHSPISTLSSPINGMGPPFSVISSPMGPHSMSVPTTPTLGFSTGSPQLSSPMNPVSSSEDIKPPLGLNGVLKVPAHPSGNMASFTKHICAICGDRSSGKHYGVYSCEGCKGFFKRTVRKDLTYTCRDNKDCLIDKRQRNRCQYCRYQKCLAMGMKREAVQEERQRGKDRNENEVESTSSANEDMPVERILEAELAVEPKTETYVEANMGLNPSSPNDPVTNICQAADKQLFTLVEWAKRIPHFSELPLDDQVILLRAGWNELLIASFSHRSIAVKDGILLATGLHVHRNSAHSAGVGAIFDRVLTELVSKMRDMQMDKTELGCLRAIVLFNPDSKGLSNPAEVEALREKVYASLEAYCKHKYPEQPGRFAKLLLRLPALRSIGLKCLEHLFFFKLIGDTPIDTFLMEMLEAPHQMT
The data set can be described thus: RXR reporter gene (luciferase) transfer assay in COS-1 cells. In kind it is cell-based. The following applies: for degree of increase in the luciferase activity, RXR vector: control lot = 1. How it is done: A plasmid containing a reporter gene regulated in expression by RXR response element and an RXRα expression plasmid were transferred into COS-1 cells. Then these cells were treated with the compounds of the present invention such as ascochlorin.
Plasmids were transferred into COS-1 cells. Gene transfer was carried out in a conventional manner with the use of Lipofect AMINE reagent (Life Technologies). 1×10^5 cells were dispersed in 2 ml of Dulbecco's modified Eagle medium (DMEM) containing 10% of fetal calf serum and poured into a 35 mm Petri dish. After culturing in a CO2 incubator for 17 hours, the medium was removed and the cells adhering to the Petri dish were washed with phosphate-buffered saline (PBS). Then gene transfer was carried out by using Lipofect AMINE reagent. Namely, 500 ml of a minimum serum medium OptiMEM (Life Technologies) containing […] of a plasmid containing a luciferase gene under the regulation in expression by RXR response element (PRXRL: RXRE-SV40 luciferase; a reporter gene plasmid wherein RXRE has been ligated to SV40 promoter and luciferase cDNA, under the regulation in expression thereby, has been located downstream thereof); […] of an RXRα expression plasmid (pRXRα; a plasmid wherein human RXRα CDNA has been ligated to the downstream of a cytomegalovirus promoter to express human RXRα in mammalian cells); and 2 mg of a β-galactosidase gene plasmid to assess the gene transfer ratio (pCH110; Pharmacia) were pre-mixed with 500 ml of OptiMEM containing 50 ml of Lipofec AMINE, and the resultant mixture was maintained at room temperature for 15 minutes. 100 ml of this liquid mixture was mixed with 400 ml of OptiMEM, and the medium mixture was divided to the Petri dish. After maintaining in a CO2 incubator at 37° C. for 3 hours, the gene transfer medium was sucked off from the Petri dish and DMEM medium containing a test substance and 10% of serum (activated carbon-treated) was added thereto followed by culturing at 37° C. for 20 hours. […] Further, dimethyl sulfoxide (final concentration: 0.1%) was added as the solvent for the test substance.
After sucking off the medium from the Petri dish, […] of a cultured cell lysing solution (25 mM Tris phosphate buffer (pH 7.8), 2 mM 1,2-diaminocyclohexane-N, N,N′,N′-tetraacetate, 10% glycerol, 1% Triton X-100) was added and the cells were peeled off with a rubber policeman and collected. After completely disrupting the cells by freezing and melting, the cells were centrifuged at 4° C. (15,000 rpm, 2 min) and the supernatant thus obtained was employed as a sample for measurement. To 20 ml of the supernatant, 100 ml of a luciferase substrate solution (2.14 mg of Co-A, 100 ml of 470 mM D-Luciferin, 200 ml of 530 mM ATP, 2 ml of DTT-Tricine buffer (pH 7.8)) was added and the fluorescence intensity was measured with a luminometer (ATTO Luminosensor AB-2000). To measure the β-galactosidase for determining the gene transfer efficiency, using a Luminescent β-galactosidase detection kit II (Clontech), fluorescence intensity was measured by a luminometer.
(A reporter such as luciferase makes a cellular process visible.)

For another data set, the system named is male ICR and ddY mice. Nature of the data set: Serum total cholesterol lowering effect in mice. In kind it is in vivo, mouse. The following applies: 8 days; for Serum total cholesterol, % change: vs control; for Serum total cholesterol: Mean±SE. The text has this:
Effect of serum cholesterol lowering agents varies among animals. Namely, some agents which are effective on a certain animal exert […] on others. For example, compactin, which is an HMG CoA reductase inhibitor, cannot lower the serum total cholesterol level when administered to rodents such as rat or mouse. This is because even though HMG CoA reductase is inhibited in the rodent liver, the enzyme is biosynthesized in an amount in excess of that for compensating the inhibition so that the inhibitory effect is negated. Accordingly, it is favorable to calibrate the effect of lowering serum total cholesterol level in as many animals as possible. Concerning the effect of the compounds of the present invention on the serum total cholesterol level, an assay was made with the use of mice. After adding these compounds to a standard powdery feed for rat and mouse, the resultant mixtures were molded into pellets and given for 8 days to male ICR and ddY mice aged 5 weeks. In the afternoon of the day 8, the blood of each animal was collected from the heart and the total cholesterol in the serum was determined. The doses were determined as the maximum dose, in which body weight gain was not suppressed after orally administering for 1 week, and as the ¼ dose thereof.
Each value is represented in Mean±SE (n=10). a) In the case of Compound-1, the control group consisted of 23 animals while the 0.04% and 0.01% groups each consisted of 12 animals.

Another data set has as its system bovine serum. The data set can be described thus: Reaction with serum (Schiff base formation): free compound and recovery. The following applies: After 24 hours.
The test system of another data set is db/db mice. The following applies: oral; cited from earlier work.

Values joined by “and” are separate entries in the source; they are usually repeats but may differ in a detail not shown here. Equal values may be shown once.

This is an account of results in patent US6605639B1, “Ligands of nuclear receptor” (Nuclear Receptor Research, Ltd., priority 1998, dated 2003).

Description for bovine serum: To recover such a compound in a free state from plasma, it is required to add a large amount of a water-miscible organic solvent (methanol, ethanol, acetone, acetonitrile, etc.) to the plasma, acidify the mixture (pH 3.0 or below) and then allow it to stand at room temperature for about 1 week. […] Ascochlorin, Compound-6 or Compound-14 is dissolved in a small amount of an organic solvent and added to serum.
At definite points, the serum was sampled and divided into 2 portions. Ten times as much acetonitrile was added to one of these portions and the mixture was centrifuged. Then the free compound in the serum was determined. To the other portion, 10 times as much acetonitrile containing 1% of acetic acid was added. After allowing to stand at room temperature for 1 week, the mixture was centrifuged and the free compound was determined (FIG. 10).

For “3-[5-[l(R),2(S),6(S)-trimethyl-3-oxocylohexyl]-3-methyl-2,4-pentadienyl]-2,4-dihydroxy-5-chloro-6-methylbenzaldehyde [Compound-1]”, the “toxicity when present in a free state in the blood” value with male Wistar rats was “strong toxicity”. Besides, at human RXRα (10^−6 M), the “fold increase in luciferase reporter activity (control = 1)” value (“fold increase” below) was 2.03 and the “degree of increase in the luciferase activity, RXR vector” value (from here on “degree of increase”) came to 61. Besides, in the data set on male ICR and ddY mice (0.01% in feed), the “Serum total cholesterol, % change” value is −11% and the Serum total cholesterol is 138 ± 5.1 mg/dL. Further, in the data set on male ICR and ddY mice (0.04% in feed), the “Serum total cholesterol, % change” value is on record as −15% and the Serum total cholesterol turned out to be 131 ± 6.7 mg/dL.
Turning to `COc1c(Cl)c(C)c(C=O)c(O)c1C/C=C(C)/C=C/[C@@]1(C)[C@H](C)CCC(=O)[C@@H]1C` [Compound-6, 4-O-methylASC], at human RXRα (5 × 10^−6 M), the “fold increase” value is 1.57 and the “degree of increase” value is given as 55. Further, in the data set with male ICR and ddY mice (0.01% in feed), the “Serum total cholesterol, % change” value was −16% and −13%; the Serum total cholesterol is 93 ± 4.4 mg/dL and 103 ± 1.2 mg/dL. Also, the Serum total cholesterol with male ICR and ddY mice (0.04% in feed) was 92 ± 3.3 mg/dL and 75 ± 4.4 mg/dL. Also, the “free compound in serum” value in the data set on bovine serum is reported as “scarcely detected”.
For `CC(/C=C/[C@@]1(C)[C@H](C)CCC(=O)[C@@H]1C)=C\Cc1c(O)c(C=O)c(C)c(Cl)c1OCC(=O)O` [Compound-14, 4-O-carboxymethylASC], the “blood glucose level, serum lipid level and serum insulin level” value in the data set on db/db mice is recorded as “significantly lowered”. Besides, at human RXRα (10^−5 M), the “fold increase” value stood at 1.23 and the “degree of increase” value stood at 47. In the data set on male ICR and ddY mice (0.01% in feed), the “Serum total cholesterol, % change” value was −7% and −13%; the Serum total cholesterol was 109 ± 2.8 mg/dL and 174 ± 4.9 mg/dL. In addition, the Serum total cholesterol in the data set on male ICR and ddY mice (0.04% in feed) is 144 ± 7.2 mg/dL and 100 ± 4.4 mg/dL. The “free compound in serum” value in the data set with bovine serum is on record as “scarcely detected”.
Consider `CC(/C=C/C1(C)C(C)C=CC(=O)C1C)=C\Cc1c(O)c(Cl)c(C)c(C=O)c1O` (stereo not drawn) [Compound-26], for which the “toxicity when present in a free state in the blood” value in the data set on male Wistar rats is on record as “strong toxicity”. On human RXRα (4 × 10^−7 M), the “fold increase” value is recorded as 1.91 and the “degree of increase” value is listed as 63. Moreover, in the data set on male ICR and ddY mice (0.01% in feed), the “Serum total cholesterol, % change” value is given as −10% and the Serum total cholesterol was found to be 132 ± 6.1 mg/dL. In addition, in the data set with male ICR and ddY mice (0.04% in feed), the “Serum total cholesterol, % change” value is reported as −24% and the Serum total cholesterol is 110 ± 5.4 mg/dL.
